Measured values reported in patent US5500442A, “Cyclobut-3-ene-1,2-dione derivatives as smooth muscle relaxants” (American Home Products Corporation, priority 1994, dated 1996).

Key:
[1] = test system: Isolated Rat Aortic Tissue; assay: Aortic smooth muscle relaxing activity: inhibition of KCl-evoked contracture in isolated rat aortic rings; format: cell-based, Sprague-Dawley rats; conditions: isolated rat thoracic aorta rings, 25 mM KCl; read-out: IC50 of Aorta Contraction
Text: Aortic smooth muscle relaxing activity of the compounds of this invention was established in accordance with standard pharmaceutically accepted test procedures in representative compounds as follows:
Sprague-Dawley rats (150-200 g) are rendered unconscious by CO2 asphyxiation and then euthanized by cervical dislocation. The thoracic aorta is removed into warm (37 deg. C.) Krebs-Henseleit solution. The aorta is cleaned of fat and loose adventitia and cut into rings 3-4 mm in width. The rings are subsequently suspended between two stainless steel wire tissue holders in a 10 ml tissue bath. One wire tissue holder is attached to fixed hook while the other is attached to an isometric force transducer. Resting tension is set at 1.0 g. The tissues are allowed to recover for a period of 60 mins prior to beginning the experiment. The tissues are challenged with 25 mM KCl to elicit a contracture. The tissue are then washed repeatedly with fresh Krebs-Henseleit solution over a period of 30 rains and allowed to recover to baseline tension. 25 mM KCl is then introduced into the tissue bath to evoke a contracture that is allowed to stabilize for not less than 45 rains. Increasing concentrations of test compound or vehicle are then added to the tissue bath in a cumulative fashion.
Isometric force developed by the aortic rings is measured using force transducer and recorded on a polygraph. The percentage inhibition of contractile force evoked by each concentration of a given test compound is used to generate a concentration-response curve. The concentration required to elicit 50% inhibition of pre-drug contractile activity (IC50 concentration) is calculated from this concentration-response curve. The maximum percentage inhibition of contractile activity evoked by a test compound is also recorded for concentrations of test compound<or equal to 30 uM.

[2] = test system: Isolated Rat Bladder; assay: Bladder smooth muscle relaxing activity: inhibition of KCl-enhanced contractions in isolated rat bladder strips; format: cell-based, Sprague-Dawley rats; conditions: 15 mM KCl; for IC50: 37 deg. C, read-out: IC50 of Bladder Contraction; for inhibition at up to 30 µM: at 30 μM, value in parentheses, read-out: % Inhibition of Bladder Contraction at 30 μM
Text: Bladder smooth muscle relaxing activity of the compounds of this invention was established in accordance with standard pharmaceutically accepted test procedures in representative compounds as follows:
Sprague-Dawley rats (150-200 g) are rendered unconscious by CO2 asphyxiation and then euthanized by cervical dislocation. The bladder is removed into warm (37 deg. C) physiological salt solution (PSS) of the following composition (mM): NaCl, 118.4; KCl, 4.7; CaCl2, 2.5; […]; NaHCO3, 24.9; KH2 PO4, 1.2; glucose, 11.1; EDTA, 0.023; gassed with […]; pH 7.4. The bladder is opened and then cut into strips 1-2 mm in width and 7-10 mm in length. The strips are subsequently suspended in a 10 ml tissue bath under an initial resting tension of 1.5 g. The strips are held in place by two surgical clips one of which is attached to fixed hook while the other is attached to an isometric force transducer. […] The carbachol is then washed out and the tissue allowed to relax to its resting level of activity. Following 1 further 30 min period of recovery an additional 15 mM KCl are introduced into the tissue bath. This increase in KCl concentration results in a large increase in the amplitude of spontaneous contractions (and initiation of contractions in previously quiescent strips) superimposed upon a small increase in basal tone. Following stabilization of this enhanced level of contractile activity, incremental increases in the concentration of test compound or vehicle are introduced into the tissue bath. Contractile activity is measured for each compound or vehicle concentration during the last rain of a 30 rain challenge.
Isometric force developed by the bladder strips is measured using a […] to elicit 50% inhibition of pre-drug contractile activity (IC50 concentration) is calculated from this concentration-response curve. The maximum percentage inhibition of contractile activity evoked by a test compound is also recorded for concentrations of test compound<or equal to 30 uM.

Row | IC50 [1] [nM] | IC50 [2] [nM] | Compound | inhibition at up to 30 µM [2] [%]
1 | 170 ± 40 | 190 ± 20 | CC1(C)Oc2ccc(-c3c(N)c(=O)c3=O)cc2[C@@H](N2Cc3ccccc3C2=O)[C@@H]1O (relative stereo) [Example 4, 4-Amino-3-[trans-3-hydroxy-2,2-dimethyl-4-(1-oxo-1,3-dihydroisoindol-2-yl)-chroman-6-yl]-cyclobut-3-ene-1,2-dione] | 
2 | 830 ± 240 | 1620 | CNc1c(-c2ccc3c(c2)[C@@H](N2Cc4ccccc4C2=O)[C@H](O)C(C)(C)O3)c(=O)c1=O (relative stereo) [Example 7, 3-[trans-3-Hydroxy-2,2-dimethyl-4-(1-oxo-1,3-dihydroisoindol-2-yl)-chroman-6-yl]-4-methylamino-cyclobut-3-ene-1,2-dione] | 
3 |  | 21900 | CC1(C)Oc2ccc(-c3c(O)c(=O)c3=O)cc2[C@@H](N2Cc3ccccc3C2=O)[C@@H]1O (relative stereo) [Example 8, 3-Hydroxy-4-[trans-3-hydroxy-2,2-dimethyl-4-(1-oxo-1,3-dihydroisoindol-2-yl)-chroman-6-yl]-cyclobut-3-ene-1,2-dione] | 
4 | 15 ± 7 | 110 | Cc1c(-c2ccc3c(c2)[C@@H](N2Cc4ccccc4C2=O)[C@H](O)C(C)(C)O3)c(=O)c1=O (relative stereo) [Example 9, 3-[trans-3-Hydroxy-2,2-dimethyl-4-(1-oxo-1,3-dihydro-isoindol-2-yl)-chroman-6-yl]-4-methyl-cyciobut-3-ene-1,2-dione] | 

More lines, now with the values behind:

Row | Compound | IC50 [1] [nM] | IC50 [2] [nM] | inhibition at up to 30 µM [2] [%]
5 | CC(C)Oc1c(-c2ccc3c(c2)[C@@H](N2Cc4ccccc4C2=O)[C@H](O)C(C)(C)O3)c(=O)c1=O (relative stereo) [Example 3, 3-[trans-3-hydroxy-2,2-dimethyl-4-(1-oxo-1,3-dihydroisoindol-2-yl)-chroman-6-yl]-4-isopropoxy-cyclobut-3-ene-1,2-dione] | 1160 ± 210 | 10100 ± 390 | 
6 | CC1(C)Oc2ccc(-c3c(NCCO)c(=O)c3=O)cc2[C@@H](N2Cc3ccccc3C2=O)[C@@H]1O (relative stereo) [Example 5, 3-[trans-3-Hydroxy-2,2-dimethyl-4-(1-oxo-1,3-dihydroisoindol-2-yl),-chroman-6-yl]-4-(2-hydroxy-ethylamino)-cyclobut-3-ene-1,2-dione] |  |  | 14
7 | CC1(C)Oc2ccc(-c3c(N4CCCC4)c(=O)c3=O)cc2[C@@H](N2Cc3ccccc3C2=O)[C@@H]1O (relative stereo) [Example 6, 3-[trans-3-Hydroxy-2,2-dimethyl-4-(1-oxo-1,3-dihydroisoindol-2-yl)-chroman-6-yl]-4-pyrrolindin-1-yl-cyclobut-3-ene-1,2-dione] |  |  | 33
